Laboratory results published in patent publication US20250304620A1, “ANTIMICROBIAL PEPTIDE AND APPLICATION THEREOF” (priority 2023, published 2025).
≈ marks a conversion by molar mass, not a printed value. Marks after values point to notes of the source that are not given here. Non-standard residues stand in square brackets, D forms with d. Residues, ends and D or L forms follow the SMILES beside them. dPhe(3,4-Cl2) = N[C@H](Cc1ccc(Cl)c(Cl)c1)C(=O)O; dPhe(3,4-F2) = N[C@H](Cc1ccc(F)c(F)c1)C(=O)O; d2Nal = N[C@H](Cc1ccc2ccccc2c1)C(=O)O

What was measured:
[1] = system: Staphylococcus aureus (NRS 384); test: microbe, parasite or virus in culture; format: cell-based; details: NRS 384
How it was run: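 CLSI broth microdilution with serial twofold dilutions gave MICs against S. aureus NRS 384, with 5 parallel replicates. Levofloxacin and the AMP Cbf-K16 served as positive controls.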

[2] = system: Candida glabrata ATCC 15126; format: cell-based
How it was run: (§1)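 Broth microdilution (CLSI), twofold steps, MIC endpoint, 5× in parallel.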

Candida krusei ATCC 6258 = format: cell-based
How it was run: as §1

[3] = system: Corynebacterium ATCC 7715; format: cell-based
How it was run: as §1

[4] = system: Trichophyton ATCC MYA-4438; format: cell-based
How it was run: as §1

[5] = system: Shigella flexneri ATCC 12022; test: MIC against clinically common bacterial strain; format: cell-based
How it was run: as §1

[6] = system: Methicillin-resistant Staphylococcus aureus (MRSA); format: cell-based; details: Methicillin-resistant
How it was run: (§2)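 MICs determined by CLSI broth microdilution with serial twofold dilutions of the antimicrobial peptides against clinical drug-resistant isolates. Each determination was repeated 5 times in parallel.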

[7] = system: carbapenem-resistant Escherichia coli (CREC); format: cell-based; details: carbapenem-resistant (CREC)
How it was run: as §2

[8] = system: carbapenem-resistant Klebsiella pneumoniae (CRKP); format: cell-based; details: carbapenem-resistant (CRKP)
How it was run: as §2

[9] = system: carbapenem-resistant Pseudomonas aeruginosa (CRPA); format: cell-based; details: carbapenem-resistant (CRPA)
How it was run: as §2

[10] = system: vancomycin-resistant Enterococcus (VRE); format: cell-based
How it was run: as §2

rabbit red blood cells = format: cell-based; details: red cells of rabbit, 1 h
[11] = system: Staphylococcus aureus (NRS 384); details: NRS 384, 3 h
Procedure: Trypsin (250 U/mg, pH=8.0) and AMPs (LV-1 to LV-30) were mixed in a ratio of 1:10 (w/w) and added to a reaction buffer (0.2 M sodium phosphate, 1 mM CaCl2), pH 7.5), and then incubated at 37° C. for 3 h.

[12] = system: Escherichia coli ATCC 25922; test: Oral formulations on mice with systemic bacterial infection; format: in vivo, ICR mice; details: three times a day for 7 days; for Number of mice that died on each day after infection: day 4 / Number of mice that died on each day after infection: day 5 / Number of mice that died on each day after infection: day 6 / Number of mice that died on each day after infection: day 7 / Number of mice that died on each day after infection: day 8 / Average survival times (Days): n = 10; for Average survival times (Days): observed for 14 d
How it was run: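 ICR mice of both sexes, 10 per group, infected i.p. with 0.2 mL E. coli ATCC 25922 at 1×10^7 CFU/mL. Compounds gavaged by body weight immediately after infection, three times daily for 7 days; deaths and survival time recorded over 14 d observation.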

[13] = Serum stability assay (residual level by RP-HPLC); details: human

Structure (SMILES) | MIC against Staphylococcus aureus (NRS 384) [1] | MIC Candida glabrata ATCC 15126 [2] | MIC Candida krusei ATCC 6258 (Candida krusei ATCC 6258) | MIC Corynebacterium ATCC 7715 [3] | MIC Trichophyton ATCC MYA-4438 [4] | MIC Shigella flexneri ATCC 12022 [5] | MIC MRSA [6] | MIC CREC [7] | MIC CRKP [8] | MIC CRPA [9] | MIC VRE [10] | MHC (minimum hemolytic concentration, lowest concentration causing 10% hemolysis) (rabbit red blood cells) | Trypsin MIC [11] | Number of mice that died on each day after infection: day 4 ([12]; 1 mg/kg gavage) | Number of mice that died on each day after infection: day 5 ([12]; 1 mg/kg gavage) | Number of mice that died on each day after infection: day 6 ([12]; 1 mg/kg gavage) | Number of mice that died on each day after infection: day 7 ([12]; 1 mg/kg gavage) | Number of mice that died on each day after infection: day 8 ([12]; 1 mg/kg gavage) | Average survival times (Days) ([12]; 1 mg/kg gavage) | remaining at 12 h, 0.91 mg/mL [13] | also measured
CC(=O)N[C@H](CCCNC(=N)N)C(=O)N[C@H](CCCCN)C(=O)N[C@H](C)C(=O)N[C@H](C)C(=O)N[C@H](Cc1ccc2ccccc2c1)C(=O)N[C@H](CCCNC(=N)N)C(=O)N[C@H](C)C(=O)N[C@H](CCCCN)C(=O)N[C@H](Cc1ccc2ccccc2c1)C(=O)N[C@H](CCCNC(=N)N)C(=O)N[C@H](CCCCN)C(N)=O [LV-15] (Ac-[dR][dK][dA][dA][d2Nal][dR][dA][dK][d2Nal][dR][dK]-NH2) | 1 µg/mL (≈ 0.658 µM) | 4 µg/mL (≈ 2.63 µM) | 4 µg/mL (≈ 2.63 µM) | 8 µg/mL (≈ 5.26 µM) | 8 µg/mL (≈ 5.26 µM) | 2 µg/mL (≈ 1.32 µM) | 4 µg/mL (≈ 2.63 µM) | 4 µg/mL (≈ 2.63 µM) | 8 µg/mL (≈ 5.26 µM) | 8 µg/mL (≈ 5.26 µM) | 8 µg/mL (≈ 5.26 µM) | >1000 µg/mL | 1 µg/mL | 1 Mouse | 3 Mouse | 0 Mouse | 1 Mouse | 0 Mouse | 9.6** Days | 97.3% | –
CC(=O)N[C@H](CCCNC(=N)N)C(=O)N[C@H](CCCCN)C(=O)N[C@H](CC(C)C)C(=O)N[C@H](CC(C)C)C(=O)N[C@H](Cc1ccccc1)C(=O)N[C@H](CCCNC(=N)N)C(=O)N[C@H](CC(C)C)C(=O)N[C@H](CCCCN)C(=O)N[C@H](Cc1ccc2ccccc2c1)C(=O)N[C@H](CCCNC(=N)N)C(=O)N[C@H](CCCCN)C(N)=O [LV-3] (Ac-[dR][dK][dL][dL][dF][dR][dL][dK][d2Nal][dR][dK]-NH2) | 1 µg/mL (≈ 0.627 µM) | 16 µg/mL (≈ 10 µM) | 16 µg/mL (≈ 10 µM) | 4 µg/mL (≈ 2.51 µM) | 16 µg/mL (≈ 10 µM) | 2 µg/mL (≈ 1.25 µM) | 2 µg/mL (≈ 1.25 µM) | 4 µg/mL (≈ 2.51 µM) | 4 µg/mL (≈ 2.51 µM) | 8 µg/mL (≈ 5.01 µM) | 8 µg/mL (≈ 5.01 µM) | >1000 µg/mL | 1 µg/mL | 1 Mouse | 0 Mouse | 1 Mouse | 2 Mouse | 1 Mouse | 10.2*** Days | 98.7% | –
CC(=O)N[C@H](CCCNC(=N)N)C(=O)N[C@H](CCCCN)C(=O)N[C@H](CC(C)C)C(=O)N[C@H](CC(C)C)C(=O)N[C@H](Cc1ccc(F)c(F)c1)C(=O)N[C@H](CCCCN)C(=O)N[C@H](CC(C)C)C(=O)N[C@H](CCCCN)C(=O)N[C@H](Cc1ccc(F)c(F)c1)C(=O)N[C@H](CCCCN)C(=O)N[C@H](CCCNC(=N)N)C(N)=O [LV-6] (Ac-[dR][dK][dL][dL][dPhe(3,4-F2)][dK][dL][dK][dPhe(3,4-F2)][dK][dR]-NH2) | 1 µg/mL (≈ 0.629 µM) | 8 µg/mL (≈ 5.03 µM) | 4 µg/mL (≈ 2.52 µM) | 2 µg/mL (≈ 1.26 µM) | 8 µg/mL (≈ 5.03 µM) | 4 µg/mL (≈ 2.52 µM) | 4 µg/mL (≈ 2.52 µM) | 2 µg/mL (≈ 1.26 µM) | 8 µg/mL (≈ 5.03 µM) | 8 µg/mL (≈ 5.03 µM) | 2 µg/mL (≈ 1.26 µM) | >1000 µg/mL | 1 µg/mL | 1 Mouse | 0 Mouse | 1 Mouse | 1 Mouse | 1 Mouse | 10.9*** Days | 98% | Number of mice that died on each day after infection: day 4 ([12]; 0.2 mg/kg gavage): 1 Mouse; Number of mice that died on each day after infection: day 5 ([12]; 0.2 mg/kg gavage): 3 Mouse; Number of mice that died on each day after infection: day 6 ([12]; 0.2 mg/kg gavage): 2 Mouse; Number of mice that died on each day after infection: day 7 ([12]; 0.2 mg/kg gavage): 0 Mouse; Number of mice that died on each day after infection: day 8 ([12]; 0.2 mg/kg gavage): 0 Mouse; Average survival times (Days) ([12]; 0.2 mg/kg gavage): 8.7** Days; Number of mice that died on each day after infection: day 4 ([12]; 5 mg/kg gavage): 2 Mouse; Number of mice that died on each day after infection: day 5 ([12]; 5 mg/kg gavage): 1 Mouse; Number of mice that died on each day after infection: day 6 ([12]; 5 mg/kg gavage): 1 Mouse; Number of mice that died on each day after infection: day 7 ([12]; 5 mg/kg gavage): 0 Mouse; Number of mice that died on each day after infection: day 8 ([12]; 5 mg/kg gavage): 0 Mouse; Average survival times (Days) ([12]; 5 mg/kg gavage): 10.3*** Days; survival time of mice infected with Escherichia coli ([12]; gavage, observed 14 d): superior to those of the Levofloxacin group
CC(=O)N[C@H](CCCNC(=N)N)C(=O)N[C@H](CCCCN)C(=O)N[C@H](CC(C)C)C(=O)N[C@H](CC(C)C)C(=O)N[C@H](Cc1ccc(Cl)c(Cl)c1)C(=O)N[C@H](CCCCN)C(=O)N[C@H](CC(C)C)C(=O)N[C@H](CCCCN)C(=O)N[C@H](Cc1ccc(Cl)c(Cl)c1)C(=O)N[C@H](CCCCN)C(=O)N[C@H](CCCNC(=N)N)C(N)=O [LV-8] (Ac-[dR][dK][dL][dL][dPhe(3,4-Cl2)][dK][dL][dK][dPhe(3,4-Cl2)][dK][dR]-NH2) | 1 µg/mL (≈ 0.604 µM) | 16 µg/mL (≈ 9.66 µM) | 16 µg/mL (≈ 9.66 µM) | 2 µg/mL (≈ 1.21 µM) | 8 µg/mL (≈ 4.83 µM) | 4 µg/mL (≈ 2.42 µM) | 4 µg/mL (≈ 2.42 µM) | 4 µg/mL (≈ 2.42 µM) | 2 µg/mL (≈ 1.21 µM) | 8 µg/mL (≈ 4.83 µM) | 8 µg/mL (≈ 4.83 µM) | >1000 µg/mL | 1 µg/mL | 2 Mouse | 1 Mouse | 0 Mouse | 2 Mouse | 0 Mouse | 9.7** Days | 97.6% | –
CC(=O)N[C@H](CCCCN)C(=O)N[C@H](CCCNC(=N)N)C(=O)N[C@H](CC(C)C)C(=O)N[C@H](CC(C)C)C(=O)N[C@H](Cc1ccc2ccccc2c1)C(=O)N[C@H](CCCCN)C(=O)N[C@H](CC(C)C)C(=O)N[C@H](CCCCN)C(=O)N[C@H](Cc1ccc2ccccc2c1)C(=O)N[C@H](CCCCN)C(=O)N[C@H](CCCNC(=N)N)C(N)=O [LV-23] (Ac-[dK][dR][dL][dL][d2Nal][dK][dL][dK][d2Nal][dK][dR]-NH2) | 1 µg/mL (≈ 0.618 µM) | 8 µg/mL (≈ 4.94 µM) | 4 µg/mL (≈ 2.47 µM) | 4 µg/mL (≈ 2.47 µM) | 16 µg/mL (≈ 9.89 µM) | 2 µg/mL (≈ 1.24 µM) | 4 µg/mL (≈ 2.47 µM) | 2 µg/mL (≈ 1.24 µM) | 8 µg/mL (≈ 4.94 µM) | 4 µg/mL (≈ 2.47 µM) | 4 µg/mL (≈ 2.47 µM) | >1000 µg/mL | 1 µg/mL | 2 Mouse | 1 Mouse | 1 Mouse | 0 Mouse | 1 Mouse | 9.7** Days | 97.5% | –
